The text below walks through data of US8188089B2, “Tylophorine analogs as antitumor agents” (The University of North Carolina at Chapel Hill, priority 2006, dated 2012).

Molecules are shown by their SMILES. Where a name gives a salt, the structure may show the parent alone.

Series [1] has as its system human A549 lung cancer cell line. Kind of series: Cell growth inhibition assay (SRB), Example 2, A549. The series is classed as cell-based. The text has this: Cell Growth Inhibition Assay. The sulforhodamine B assay was used according to the procedures developed and validated at NCI. […] The values were interpolated from dose-response data.
In the next series the test system is KB (nasopharyngeal). Kind of series: Cell growth inhibition assay (SRB), Example 2, KB. It counts as cell-based, human. The note with it: Table 6, 72-h continuous treatment. The text has this: (§1) Drug-Resistance Study. Twelve active compounds [including four hydrochloride salts (18b, 22b, 24b, 32b) of corresponding active free bases (18a, 22a, 24a, 32a)] were further screened against an extended panel of human tumor cell lines including DU-145 (prostate), ZR-751 (breast), KB (nasopharyngeal), and KB-VIN (multidug-resistant KB subline) in order to explore their antitumor spectra and drug-resistance profiles. Four compounds were used as reference compounds. Antofine is a positional isomer of tylophorine isolated from Asclepiadaceae by Dr. T. S. Wu in Taiwan (Wu, P. L. et al., Heterocycles 2002; 57:2401). […] Doxorubicin (Adriamycin), vincristine, and etoposide (VP-16, Vepesid®) are widely used anticancer agents for treating a range of solid tumors.
(§2) Cell Growth Inhibition Assay. The sulforhodamine B assay was used according to the procedures developed and validated at NCI. The in vitro anticancer activities are expressed as ED50 values, which is the test compound concentration (μM) that reduced the cell number by 50% after 72-h of continuous treatment. The values were interpolated from dose-response data. Each test was performed in triplicate with variation less than 5%. The ED50 values determined in each of independent tests varied less than 10%. Compound stock solutions were prepared in DMSO with the final solvent concentration ≦1% DMSO (v/v), a concentration without effect on cell replication. The cells were cultured at 37° C. in RPMI-1640 supplemented with 25 mM N-2-hydroxyethylpiperazine-N′-2-ethanesulfonic acid (HEPES), […], 10% (v/v) fetal bovine serum, and 100 μg/mL kanamycin in a humidified atmosphere containing 5% CO2.

The subject of the next series is DU-145 (prostate). Nature of the series: Cell growth inhibition assay (SRB), Example 2, DU-145. It counts as cell-based, human. Conditions: Table 6, 72-h continuous treatment.
Text: as §1, §2

Another series relates to ZR-751 (breast). Nature of the series: Cell growth inhibition assay (SRB), Example 2, ZR-751. It counts as cell-based, human. Conditions: Table 6, 72-h continuous treatment.
Text: as §1, §2

Series [2] concerns KB-VIN (multidug-resistant KB subline). Kind of series: Cell growth inhibition assay (SRB), Example 2, KB-VIN. It counts as cell-based, human. The note with it: Table 6, 72-h continuous treatment.
Text: as §1, §2

For series [3], the system named is tumor cell line panel (A549, KB, DU-145, ZR-751, KB-VIN). Nature of the series: Cytotoxic activity against the whole tumor cell line panel. The series is classed as cell-based, human. Conditions: all cell lines of the panel; read-out: ED50 values against the tumor cell line panel.
Text: as §1
Cell Growth Inhibition Assay. The sulforhodamine B assay was used according to the procedures developed and validated at NCI. The in vitro anticancer activities are expressed as ED50 values, which is the test compound concentration (μM) that reduced the cell number by 50% after 72-h of continuous treatment. The values were interpolated from dose-response data. Each test was performed in triplicate with variation less than 5%. The ED50 values determined in each of independent tests varied less than 10%. […]

Series [4] relates to human A549 lung cancer cell line. Nature of the series: Cell growth inhibition assay (SRB), Example 1. The note with it: Homo sapiens; table footnotes of Example 1; A549. The series is classed as cell-based. From the text: Results and discussion. […] Etoposide (VP-16) was used as the reference compound.
Cell Growth Inhibition Assay. The human A549 lung cancer cell line was used for the cytotoxicity screening of PBT derivatives using the cell-based sulforhodamine B (SRB) microtitre plate assay. […] Duration of compound exposure was 3 days.

Where [5] appears, read: Homo sapiens, A549, 72 h, Table 4, ED50, 72-h continuous treatment, NA = not active, read-out: A549 (μM), in vitro anticancer activity against A549 lung cancer cells.
Setting [6] is: Homo sapiens, A549, 72 h, Table 6, 72-h continuous treatment, read-out: EC50 (μM) A549.
[7] abbreviates: Table 6, 72-h continuous treatment, hydrochloride, read-out: EC50 (μM) A549.

Broadly, the melting point is the temperature, or range, at which the solid turns liquid. As to `COc1ccc2c(CNCCCCCCO)cc3cc4c(cc3c2c1)OCO4` [Compound 22a, N-(2,3-Methylenedioxy-6-methoxy-phenanthr-9-ylmethyl)-6-aminohexanol], the melting point is 145 to 147 °C. Further, the EC50 in series [1] (setting [5]) came out at 0.2 µM. The EC50 in series [1] (setting [6]) stood at 0.16 µM. The compound also displayed an EC50 in the series on KB (nasopharyngeal) (Homo sapiens, 72 h) of 0.25 µM. This compound showed an EC50 in the series on DU-145 (prostate) (Homo sapiens, DU-145, 72 h) of 0.04 µM. This compound gave an EC50 in the series on ZR-751 (breast) (Homo sapiens, ZR-75-1, 72 h) of 0.13 µM. In series [2], this compound registered an EC50 of 0.35 µM.
`COc1ccc2c(CNCCCCCCO)cc3cc4c(cc3c2c1)OCO4.Cl` [Compound 22b, N-(2,3-Methylenedioxy-6-methoxy-phenanthr-9-ylmethyl)-6-aminohexanol hydrochloride]: the melting point is 187 to 188 °C. Further, the EC50 in series [1] (setting [7]) was found to be 0.13 µM. Moreover, the EC50 with KB (nasopharyngeal) (hydrochloride) came out at 0.23 µM. The EC50 in the series on DU-145 (prostate) (hydrochloride) is 0.07 µM. The same compound yielded an EC50 in the series with ZR-751 (breast) (hydrochloride) of 0.08 µM. Further, the EC50 in series [2] (hydrochloride) stood at 0.16 µM.
Take `COc1ccc2c(CN3CCC(CO)CC3)cc3cc4c(cc3c2c1)OCO4` [Compound 24b, N-(2,3-Methylenedioxy-6-methoxy-phenanthr-9-ylmethyl)-L-4-piperidinemethanol hydrochloride]: the EC50 was 0.07 µM in series [1] (setting [7]); 0.07 µM in the series with KB (nasopharyngeal) (hydrochloride); 0.05 µM in the series with DU-145 (prostate) (hydrochloride); 0.04 µM in the series with ZR-751 (breast) (hydrochloride); 0.04 µM in series [2] (hydrochloride); less than 100 nM in series [3].
In turn, `COc1ccc2c(CN3CCC(CCO)CC3)cc3cc4c(cc3c2c1)OCO4` [Compound 32a, N-(2,3-Methylenedioxy-6-methoxy-phenanthr-9-ylmethyl)-4-piperidineethanol] gave a melting point of 148 to 149 °C. In series [1] (setting [5]), the EC50 came out at 0.15 µM. For the same compound, the EC50 in series [1] (setting [6]) is 0.15 µM. Moreover, the EC50 with KB (nasopharyngeal) was 0.42 µM. The EC50 with DU-145 (prostate) (Homo sapiens, DU-145, 72 h) worked out at 0.15 µM. The EC50 in the series with ZR-751 (breast) (Homo sapiens, ZR-75-1, 72 h) stood at 0.03 µM. This compound also gave an EC50 in series [2] of 0.5 µM.
`COc1ccc2c(CN3CCC(CCO)CC3)cc3cc4c(cc3c2c1)OCO4.Cl` [Compound 32b, N-(2,3-Methylenedioxy-6-methoxy-phenanthr-9-ylmethyl)-4-piperidineethanol hydrochloride] yielded a melting point of 153 to 155 °C. Also, the EC50 in series [1] (setting [7]) amounted to 0.09 µM. The same compound yielded an EC50 in the series on KB (nasopharyngeal) (hydrochloride) of 0.2 µM. Moreover, the EC50 in the series on DU-145 (prostate) (hydrochloride) is 0.1 µM. In addition, the EC50 with ZR-751 (breast) (hydrochloride) stood at 0.02 µM. The EC50 in series [2] (hydrochloride) worked out at 0.2 µM.
As for `COc1cc([C@@H]2c3cc4c(cc3[C@@H](O[C@@H]3O[C@@H]5CO[C@@H](C)O[C@H]5[C@H](O)[C@H]3O)[C@H]3COC(=O)[C@H]23)OCO4)cc(OC)c1O` [Etoposide (VP-16), Etoposide, reference compound], the EC50 was 1400 nM in series [4]; 1.4 µM in series [1] (setting [5]); 1.4 µM in series [1] (setting [6]); 4.8 µM in the series on KB (nasopharyngeal) (Homo sapiens, 72 h); 2.4 µM with DU-145 (prostate) (Homo sapiens, DU-145, 72 h); 3.1 µM in the series on ZR-751 (breast) (Homo sapiens, ZR-75-1, 72 h). Besides, the EC50 in series [2] (Homo sapiens, KBVIN, 72 h) is more than 10 µM.
In the case of `CC[C@]1(O)C[C@H]2CN(CCc3c([nH]c4ccccc34)[C@@](C(=O)OC)(c3cc4c(cc3OC)N(C=O)[C@H]3[C@@](O)(C(=O)OC)[C@H](OC(C)=O)[C@]5(CC)C=CCN6CC[C@]43[C@@H]65)C2)C1` [Vincristine, reference compound], the EC50 in series [1] (setting [5]) is 0.04 µM; in series [1] (setting [6]) it was 0.04 µM; in the series with KB (nasopharyngeal) (Homo sapiens, 72 h), 0.006 µM; in the series with DU-145 (prostate) (Homo sapiens, DU-145, 72 h) it was 0.085 µM; with ZR-751 (breast) (Homo sapiens, ZR-75-1, 72 h), 0.04 µM; in series [2] (Homo sapiens, KBVIN, 72 h) it was 5.3 µM.
